System: facial Rosacea
Test: clinical type observations of topical application to facial skin
Assay type: in vivo
Details: pyrithione zinc aqueous solution of 1% concentration strength as sole active ingredient
Protocol: In usage, the fluid composition of the invention is to be administered topically by a vehicle or carrier medium compatible with application to the skin. A useful regimen would be to a) mix 1 part of a 1% concentration strength pyrithione zinc aqueous solution with 3 parts of a cocoa butter emulsion moisturizer cream carrier; b) apply the fluid composition to the facial area of concern; c) leave the fluid composition for 2-3 minutes at the area of application; and d) rinse it off. […] For a more resistant condition of facial Rosacea, the regimen would be essentially the same—but with an increased concentration strength of pyrithione zinc aqueous solution, as by the addition of further pyrithione zinc (or zinc pyrithione) crystals to the aqueous formulation.

## [O-]n1ccccc1=S.[O-]n1ccccc1=S.[Zn+2] [pyrithione zinc, Bis [1-hydroxy-2(1H)-pyridinethionato-O,S] (T-4) zinc]
  redness, flushing and inflammation associated with facial Rosacea and skin erythema: significantly reducing the redness, flushing and inflammation

Source: patent US20180256596A1, “METHOD AND TOPICAL COMPOSITION FOR THE TREATMENT OF ROSACEA AND SKIN ERYTHEMA USING PYRITHIONE ZINC” (priority 2017, published 2018)
